# Literature values as cited in patent US11471437B2, “Compositions and methods for treating cannabinoid hyperemesis syndrome with a cannabinoid receptor antagonist” (Opiant Pharmaceuticals, Inc., priority 2019, dated 2022).
# Columns and labels:
# [1] = cited from earlier work
# CB1 receptor [2] = molecular target: T1, CB1 receptor (Homo sapiens, UniProt P21554); details: cited from earlier work
# CB1 receptor [3] = molecular target: T1, CB1 receptor; set-up: host or cells: human volunteers (in vivo); details: oral administration, normal volunteers; cited from earlier work
# [4] = oral formulation for obesity and smoking cessation; cited from earlier work
# T1 sequence (P21554 whole entry): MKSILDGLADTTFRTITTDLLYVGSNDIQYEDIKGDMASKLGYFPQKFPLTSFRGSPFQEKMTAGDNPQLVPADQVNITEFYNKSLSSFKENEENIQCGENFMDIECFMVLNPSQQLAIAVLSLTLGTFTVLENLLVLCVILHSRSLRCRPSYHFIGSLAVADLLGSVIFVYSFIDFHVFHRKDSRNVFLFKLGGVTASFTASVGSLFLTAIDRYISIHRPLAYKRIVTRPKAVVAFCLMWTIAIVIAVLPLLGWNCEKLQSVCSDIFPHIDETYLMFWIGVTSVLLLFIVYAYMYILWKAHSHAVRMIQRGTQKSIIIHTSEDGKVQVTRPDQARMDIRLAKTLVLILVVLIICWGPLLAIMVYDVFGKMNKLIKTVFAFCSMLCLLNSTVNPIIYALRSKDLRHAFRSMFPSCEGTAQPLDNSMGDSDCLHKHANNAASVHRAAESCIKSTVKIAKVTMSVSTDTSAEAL
Compound,log P [1],Potency and selectivity for CB1 (CB1 receptor [2]),Prevention (block) of pharmacological effects of smoked or inhaled THC (CB1 receptor [3]),Side effects [4]
"CS(=O)(=O)N(c1cc(F)cc(F)c1)C1CN(C(c2ccc(Cl)cc2)c2ccc(Cl)cc2)C1 (racemic) [drinabant, (±)-N-{1-[bis(4-chlorophenyl)methyl]-3-azetidinyl}-N-(3,5-difluorophenyl)methanesulfonamide]",high,potent and selective for CB1,"can prevent (that is, block) some of the pharmacological effects of smoked or inhaled THC",–
"Cc1c(C(=O)NN2CCCCC2)nn(-c2ccc(Cl)cc2Cl)c1-c1ccc(Cl)cc1 [Rimonabant, 5-(4-chlorophenyl)-1-(2,4-dichloro-phenyl)-4-methyl-N-(piperidin-1-yl)-1H-pyrazole-3-carboxamide]",–,–,–,concerning side effects including psychiatric effects such as depression and mood alterations
CCc1c(C(=O)NN2CCCCC2)nn(-c2ccc(Cl)cc2Cl)c1-c1ccc(Br)cc1 [surinabant],–,–,"can prevent (that is, block) some of the pharmacological effects of smoked or inhaled THC",–
